The target in data set [1] is T1, Alpha-2A adrenergic receptor (Homo sapiens, UniProt P08913).
T1 sequence (P08913 whole entry): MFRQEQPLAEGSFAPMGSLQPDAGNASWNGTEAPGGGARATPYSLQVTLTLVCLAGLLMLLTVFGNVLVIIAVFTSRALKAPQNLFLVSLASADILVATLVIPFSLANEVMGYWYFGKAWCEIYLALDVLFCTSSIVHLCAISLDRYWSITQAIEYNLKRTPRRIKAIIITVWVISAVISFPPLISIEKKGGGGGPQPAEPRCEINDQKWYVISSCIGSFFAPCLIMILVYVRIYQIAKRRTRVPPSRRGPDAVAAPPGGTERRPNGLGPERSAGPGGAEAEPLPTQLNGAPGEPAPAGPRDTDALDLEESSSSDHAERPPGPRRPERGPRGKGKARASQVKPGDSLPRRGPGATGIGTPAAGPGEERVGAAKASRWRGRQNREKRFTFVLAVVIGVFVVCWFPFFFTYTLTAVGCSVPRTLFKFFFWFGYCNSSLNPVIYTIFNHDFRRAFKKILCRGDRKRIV
Description: Agonist activity at alpha2A-adrenoceptor (unknown origin) expressed in CHO-alpha2-AR-PKAcatEGFP cells assessed as intracellular cAMP concentration by measuring PKA translocation after 15 mins incubation by PKA redistribution assay

The target of data set [2] is T2, Alpha-2C adrenergic receptor (Homo sapiens, UniProt P18825).
T2 sequence (P18825 whole entry): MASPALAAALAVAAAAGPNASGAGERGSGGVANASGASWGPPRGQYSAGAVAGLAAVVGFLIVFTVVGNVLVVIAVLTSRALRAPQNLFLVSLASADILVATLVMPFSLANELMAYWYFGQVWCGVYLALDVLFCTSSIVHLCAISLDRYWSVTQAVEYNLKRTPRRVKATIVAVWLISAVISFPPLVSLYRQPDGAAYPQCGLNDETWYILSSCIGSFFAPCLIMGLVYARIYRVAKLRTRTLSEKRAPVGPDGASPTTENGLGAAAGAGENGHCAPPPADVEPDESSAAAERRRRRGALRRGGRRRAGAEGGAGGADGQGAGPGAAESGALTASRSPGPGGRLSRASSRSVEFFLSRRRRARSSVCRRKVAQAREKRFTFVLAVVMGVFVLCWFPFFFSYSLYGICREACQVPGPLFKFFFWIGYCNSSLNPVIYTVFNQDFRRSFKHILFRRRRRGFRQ
Description: Binding affinity to human alpha2C-adrenoceptor

Data set [3] addresses T3, Alpha-1A adrenergic receptor (Homo sapiens, UniProt P35348).
T3 sequence (P35348 whole entry): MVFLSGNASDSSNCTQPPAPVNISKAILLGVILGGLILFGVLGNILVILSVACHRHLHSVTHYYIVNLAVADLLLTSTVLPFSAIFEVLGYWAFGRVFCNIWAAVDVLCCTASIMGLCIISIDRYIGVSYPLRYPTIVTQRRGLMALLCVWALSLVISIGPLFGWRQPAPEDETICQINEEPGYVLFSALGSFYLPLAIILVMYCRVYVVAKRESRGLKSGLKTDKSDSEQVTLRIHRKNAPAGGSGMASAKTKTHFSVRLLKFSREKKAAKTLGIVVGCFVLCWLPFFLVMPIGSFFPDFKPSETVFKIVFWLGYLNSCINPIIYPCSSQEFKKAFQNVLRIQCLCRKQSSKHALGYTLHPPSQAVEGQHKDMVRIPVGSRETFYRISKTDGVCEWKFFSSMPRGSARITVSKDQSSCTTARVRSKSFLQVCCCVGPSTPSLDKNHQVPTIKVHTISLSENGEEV
Description: Binding affinity to human alpha1A-adrenoceptor

The target in data set [4] is T4, Alpha-1D adrenergic receptor (Homo sapiens, UniProt P25100).
T4 sequence (P25100 whole entry): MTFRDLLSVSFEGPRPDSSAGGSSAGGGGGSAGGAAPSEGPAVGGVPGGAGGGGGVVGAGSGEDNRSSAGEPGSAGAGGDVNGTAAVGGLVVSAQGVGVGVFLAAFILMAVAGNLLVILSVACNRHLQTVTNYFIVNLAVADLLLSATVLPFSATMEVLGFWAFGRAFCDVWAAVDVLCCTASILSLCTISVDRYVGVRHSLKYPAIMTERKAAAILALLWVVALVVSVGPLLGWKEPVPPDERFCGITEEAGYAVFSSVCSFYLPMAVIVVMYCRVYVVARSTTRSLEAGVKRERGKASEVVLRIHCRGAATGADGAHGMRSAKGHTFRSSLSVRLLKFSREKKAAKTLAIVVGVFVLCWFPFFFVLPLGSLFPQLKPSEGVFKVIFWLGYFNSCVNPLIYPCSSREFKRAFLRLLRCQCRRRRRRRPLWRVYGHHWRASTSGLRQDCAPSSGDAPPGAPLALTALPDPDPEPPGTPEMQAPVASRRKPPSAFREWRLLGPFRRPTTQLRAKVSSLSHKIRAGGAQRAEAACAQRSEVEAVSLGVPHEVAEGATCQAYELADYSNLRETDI
Kind of data set: Binding affinity to human alpha1D-adrenoceptor.

Data set [5] concerns the target T1, Alpha-2A adrenergic receptor. This is another data set of the same source.
Description: Binding affinity to human alpha2A-adrenoceptor
The target of data set [6] is T5, Alpha-2B adrenergic receptor (Homo sapiens, UniProt P18089).
T5 sequence (P18089 whole entry): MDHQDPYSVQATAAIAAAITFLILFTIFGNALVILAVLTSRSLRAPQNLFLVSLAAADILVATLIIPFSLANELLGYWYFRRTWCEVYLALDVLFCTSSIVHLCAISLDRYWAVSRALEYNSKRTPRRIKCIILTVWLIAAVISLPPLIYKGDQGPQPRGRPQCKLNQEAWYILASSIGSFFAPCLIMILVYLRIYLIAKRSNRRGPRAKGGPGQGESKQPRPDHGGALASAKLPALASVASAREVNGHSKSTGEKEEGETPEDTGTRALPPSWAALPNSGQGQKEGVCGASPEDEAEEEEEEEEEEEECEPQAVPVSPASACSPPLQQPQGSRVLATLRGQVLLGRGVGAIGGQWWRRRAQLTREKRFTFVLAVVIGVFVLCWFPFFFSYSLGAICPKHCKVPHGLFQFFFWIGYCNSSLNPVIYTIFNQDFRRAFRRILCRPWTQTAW
Description: Binding affinity to human alpha2B-adrenoceptor

Data set [7] has as its target T6, Alpha-1B adrenergic receptor (Homo sapiens, UniProt P35368).
T6 sequence (P35368 whole entry): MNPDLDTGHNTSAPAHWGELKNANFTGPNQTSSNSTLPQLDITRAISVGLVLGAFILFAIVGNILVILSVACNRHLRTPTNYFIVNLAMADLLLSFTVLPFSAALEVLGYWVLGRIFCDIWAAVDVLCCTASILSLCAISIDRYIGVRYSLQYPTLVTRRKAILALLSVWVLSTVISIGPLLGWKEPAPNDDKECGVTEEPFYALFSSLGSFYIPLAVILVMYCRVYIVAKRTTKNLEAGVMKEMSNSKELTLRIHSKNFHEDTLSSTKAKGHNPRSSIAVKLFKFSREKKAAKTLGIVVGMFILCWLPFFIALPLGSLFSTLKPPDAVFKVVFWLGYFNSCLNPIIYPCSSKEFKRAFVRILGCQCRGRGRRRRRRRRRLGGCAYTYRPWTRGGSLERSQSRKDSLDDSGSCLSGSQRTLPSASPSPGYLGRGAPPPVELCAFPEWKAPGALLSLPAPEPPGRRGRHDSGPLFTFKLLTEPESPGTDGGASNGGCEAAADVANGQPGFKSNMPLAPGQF
Kind of data set: Binding affinity to human alpha1B-adrenoceptor.

Data set [8] addresses T3, Alpha-1A adrenergic receptor. Nature of the data set: Agonist activity at alpha1A-adrenoceptor (unknown origin) expressed in HEK293T cells assessed as fluorescence intensity measured after 30 mins by IP-one homogeneous time-resolved fluorescence assay. It counts as functional, cell-based.
Data set [9] in a line: Selectivity index, ratio of EC50 for alpha2A-adrenoceptor (unknown origin) to EC50 for alpha2C-adrenoceptor (unknown origin).
The nature of data set [10]: Selectivity index, ratio of EC50 for alpha2A-adrenoceptor (unknown origin) to EC50 for alpha2B-adrenoceptor (unknown origin).
The target in data set [11] is T2, Alpha-2C adrenergic receptor. Nature of the data set: Agonist activity at alpha2C-adrenoceptor (unknown origin) expressed in CHO-alpha2C-PKAcatEGFP cells assessed as increase in intracellular calcium level measured after 15 mins incubation by Micro automated microscopy. It is filed as functional, cell-based. (Calcium assays in cells follow changes in intracellular calcium, usually with a dye or a luminescent sensor.)

The target of data set [12] is T5, Alpha-2B adrenergic receptor. Kind of data set: Agonist activity at alpha2B-adrenoceptor (unknown origin) expressed in U2OS-EGFP-NFAT2-alpha2B-AR cells assessed as increase in intracellular calcium level measured after 15 mins incubation by Micro automated microscopy. It counts as functional, cell-based.
Data set [13] can be described thus: Selectivity index, ratio of EC50 for alpha2A-adrenoceptor (unknown origin) to EC50 for alpha1A-adrenoceptor (unknown origin).
Data set [14] in a line: Metabolic stability in mouse liver microsomes assessed as elimination half life. It is filed as ADME, Microsome. On the technique in general: Liver microsomes are vesicles of endoplasmic reticulum, rich in cytochrome P450 enzymes.
A short description of data set [15]: Metabolic stability in mouse liver microsomes assessed as intrinsic clearance. It is filed as ADME, Microsome. The conditions noted are these: read-out: CLH.

`Fc1ccc2c(c1)OCC=C2c1cnc[nH]1` gave an EC50 in [1] of over 5000 nM.
On to `Clc1cccc2c1OCC=C2c1cnc[nH]1`, for which the concentration for a half-maximal effect (EC50) in [1] is 12.8 nM.
In turn, `Brc1ccc2c(c1)C(c1c[nH]cn1)CCO2` (centres undefined) registered a concentration giving a half-maximal response (EC50) in data set [1] of 446 nM.
Consider `Cc1ccc2c(c1Br)OCC=C2c1c[nH]cn1`, for which, in data set [1], a half-maximal response (EC50) required 104 nM.
As for `NC1=N[C@]2(CCc3cccc(Cl)c3C2)OC1`, the Ki is 0.316 nM in [2]; 3.98 nM in data set [3]; 25.1 nM in data set [4]; 0.316 nM in [5]; 0.251 nM in data set [6]; 0.02 µM in data set [7].
On to `COc1cccc2c1CCOC2C1=NCCN1` (centres undefined) [TASIPIMIDINE], for which the inhibition constant (Ki) was over 1000 nM in data set [2]; 3090 nM in [3]; 3090 nM in data set [4]; 8.71 nM in data set [5]; over 1000 nM in data set [6]; 0.525 µM in [7].
Regarding `Clc1ccc2c(c1)C(c1cnc[nH]1)=CCO2`, a half-maximal effect in data set [1] (EC50) was put at 899 nM.
`COc1ccc2c(c1)C(c1c[nH]cn1)=CCO2` displayed an EC50 in [1] of over 5000 nM.
Same read-out and setting: the value for `Clc1cc(Cl)c2c(c1)C(c1c[nH]cn1)=CCO2` was 4630 nM.
As to `C1=C(c2ccc3c(c2)CC3)CNCC1`, the Ki in data set [6] is 60.3 nM.
With `N=C(N)NC(=O)Cc1c(Cl)cccc1Cl` [GUANFACINE], the figures for the Ki in [3], in data set [4] and in data set [7] were 4680 nM, 11700 nM and 135 µM, respectively.
Compound `Clc1cccc2c(Nc3ccncc3)cccc12` gave an inhibitory constant (Ki) in data set [5] of 8.32 nM.
`Fc1ccc2c(c1)OCCC2c1cnc[nH]1` (centres undefined) displayed an EC50 in data set [1] of 80.9 nM.
Still for that read-out and setting: as for `Brc1ccc2c(c1)C(c1c[nH]cn1)=CCO2`, the figure is over 5000 nM; as for `Cc1[nH]cnc1C1=CCOc2c(Cl)cccc21`, over 5000 nM; as for `Brc1ccc2c(c1)OCC=C2c1c[nH]cn1`, over 5000 nM.
For the compound `Cc1cccc2c1OCC=C2c1nc[nH]c1C`, the EC50 in data set [1] is over 5000 nM.
The compound `Brc1ccc2c(c1)OCCC2c1c[nH]cn1` (centres undefined) gave a 50% effective concentration (EC50) in data set [1] of 165 nM.
The same measure, in the same setting: as for `Clc1cc(Br)cc2c1OCC=C2c1c[nH]cn1`, the figure is over 5000 nM; as for `Cc1ccc2c(c1)C(c1c[nH]cn1)=CCO2`, 896 nM; as for `Cc1ccc2c(c1)C(c1c[nH]cn1)CCO2` (centres undefined), 2030 nM.
As for `Fc1cc(Br)c2c(c1)C(c1c[nH]cn1)=CCO2`, the concentration giving a half-maximal response (EC50) in [8] is 48.4 nM; in data set [11], 27.9 nM; in data set [1], 1.14 nM; in data set [12], 83.4 nM. In addition, the Selectivity Index came to 24 in [9], 73 in data set [10] and 42 in data set [13].
The compound `Fc1cccc2c1OCC=C2c1c[nH]cn1` returned an EC50 in [1] of 77.3 nM.
Compound `Fc1cccc2c1OCCC2c1c[nH]cn1` (centres undefined) displayed a concentration for a half-maximal effect (EC50) in data set [1] of 56.9 nM.
As for `Clc1ccc2c(c1)C(c1c[nH]cn1)CCO2` (centres undefined), the EC50 in data set [1] was 64.6 nM.
Take `Clc1cccc2c1OCCC2c1c[nH]cn1` (centres undefined): the EC50 in [8] stood at 4.05 nM; in data set [11], 35.8 nM; in [1], 2.36 nM; in data set [12] it was 24.1 nM. The Selectivity Index in data set [9] came to 15; in [10], 10; in [13], 1.7.
As for `C[C@H](c1c[nH]cn1)c1cccc2ccccc12`, the Ki was 17.8 nM in [2], 447 nM in data set [3], 15.5 nM in [5] and 35.5 nM in data set [6].
As for `Cc1cccc2c1OCCC2c1c[nH]cn1` (centres undefined), the half-maximal effective concentration (EC50) in data set [8] was 2.42 nM; in data set [11] it was over 5000 nM; in [1], 2.09 nM; in data set [12] it was 45.8 nM. Moreover, the Selectivity Index in data set [9] was over 2000; in data set [10] it was 22; in data set [13], 1.2. Further, in [14], the half-life was 36.8 min. Moreover, the microsomal CLint in [15] came to 37.7 µL/min/mg.
Consider `Clc1cccc(Cl)c1N=C1NCCN1` [CLONIDINE], for which the Ki in data set [4] is 2570 nM; in [7], 7.41 µM.
On to `Cc1cccc2c1OCC=C2c1c[nH]cn1`, for which the EC50 in [8] is 29.8 nM; in data set [11], 49.6 nM; in data set [1] it was 2.11 nM; in data set [12], 100 nM. Further, the Selectivity Index in [9] was found to be 24; in [10] it was 47; in data set [13], 14. Besides, the half-life in data set [14] came out at 4.87 min. Moreover, in data set [15], the microsomal CLint is 284 µL/min/mg.

For orientation: EC50 means the concentration at which the effect is half-maximal. As a reminder, the Ki is the equilibrium dissociation constant of an inhibitor or competing ligand from its target. Low readings indicate tighter binding, high ones weaker binding. For orientation: half-life means the time needed for the level to fall by half in the phase considered.

Source of the values: ChEMBL document CHEMBL5500407, “Designing Chromane Derivatives as α2A-Adrenoceptor Selective Agonists via Conformation Constraint” (J Med Chem, 2024).
